Entries after “also recorded” stand apart in the source; their conditions may differ. Like-named read-outs stand apart in the source and are kept apart here.
Key:
[1] = test system: primary hippocampal neurons; assay: Current clamp recording of action potential firing in cultured primary hippocampal neurons; type: cell-based, Sprague-Dawley rat; conditions: Rattus norvegicus, Hippocampal neuron
Description: Procedures were performed in accordance with the European guidelines for animal care and use in research and were approved by the Animal Experimentation Ethics Committee at the University of Barcelona. Sprague-Dawley rat pups (P 1-5) were sacrificed by decapitation, hippocampi were isolated and treated with 0.1% trypsin in HBSS (10 min, 37°C). Neurons were plated on Poly-D-Lysine (PDL)-coated 16 mm coverslips (0.5-1 x 10^5 cells) and incubated at 37°C, 5% CO2 for 1,5 hours (to allow cells adhesion) in MEM supplemented with heat-inactivated FBS (5%), heat-inactivated HS (5%), penstrep (10 Ul/ml), L-glutamine (2mM) and glucose (20mM). Cells were cultured in Neurobasal A medium, supplemented with B-27 (5%), penstrep (5 Ul/ml), glutaMAX (0,5x) and glucose (15mM). On DIV 3 cultured cells were treated with 1 µM of Ara-C to prevent proliferation of non-neuronal cells. 50% of the maintenance medium was exchanged every 4 days.
Whole-cell recordings were performed at room temperature using an EPC-10 amplifier (HEKA Elektronik, Germany) and Patch Master software (HEKA). […] Firing of primary hippocampal neurons was recorded in current clamp configuration. […]
Data was analyzed using Igor Pro 6.05 (WaveMatrics, USA) and Origin 8.0 (OriginLab, USA) software. […] Statistical difference between groups was evaluated with Mann-Whitney test and was considered significant at the value of P below 0.05.

[2] = Quantification of photostationary states (PSS) by HPLC at the isosbestic point; type: physicochemical; conditions: for ratio between the two isomers: cis (Z) / ratio between the two isomers: trans (E): HPLC
Description: High-performance Liquid Chromatography (HPLC) analysis were performed with a Waters Alliance e2695 Separation Module paired with a Waters 2998 UV/vis Photodiode Array Detector (Diode array 190-800 nm) and a Waters AQUITY QDa Mass Detector (positive ionization ESI+). Samples were injected on a XSelect CSH C18 […] 4.6x50 mm analytical column with the following mobile phases, respectively called line A and B: water with formic acid 0.1% (v/v) and acetonitrile with formic acid 0.1% (v/v). The injections were eluted with the following method: flow 1.6 mL/min, gradient 0.00-4.50 min, 5-100% B; 4.50-5.00 min, 100-5% B.
(§1) The photochromic response was characterized by the absorption spectra after irradiation with LEDs at λ = 365 nm, 380 nm, 420 nm, 460 nm, 500 nm. The maximal changes in the spectra were associated to the optimal λ to isomerize from Z to E and vice versa. Resistance to photofatigue was tested by cycles of illuminations between the optimal λ. The kinetics of the spontaneous relaxation in the dark (time course of absorption at a fixed λ) was measured to quantify the relaxation lifetime by fitting the plots to an exponential decay curve. The UV-vis absorption analysis for the photochromic characterization has been carried out at room temperature. Stock solutions were prepared in the concentration of 10 mM in DMSO. The solutions used for the measurements were obtained by diluting the stock solutions in PBS at the desired final concentration (in the range of 30 µM and 50 µM). Finally, the photostationary states (PSS) were quantified using HPLC at the λ corresponding to the isosbestic point.
The quantification of photostationary states (PSS) has been measured by HPLC analysis. The peaks at the Diode Array have been detected and integrated at the wavelength corresponding to the isosbestic point.

[3] = Photochemical characterization by UV-vis absorption (photoisomerization, thermal relaxation in the dark, photofatigue); type: physicochemical
Description: All reagents and solvents were purchased from Sigma-Aldrich and Cymit Quimica S.L. and were used without any further purification. Reactions were monitored by analytical thin layer chromatography (TLC) on commercial silica gel 60 F254 aluminum foils 20 x 20 cm (Merck). Spots were visualized under 254 or 365 nm UV lamp and/or with the use of an appropriate stain (ninidrine solution, Dragendorff reagent, alkaline potassium permanganate solution or phosphomolybdic acid solution 5% in ethanol). Compounds were purified by flash chromatography on PanReac Applichem silica gel 60 (40-63 µm) as stationary phase; the mobile phases are specified for each compound. All the UV/vis spectra and experiments were registered with Shimadzu UV-1800 UV-VIS spectrophotometer using quartz cuvettes (10 mm light path).
as §1, with “The” for “The photochromic response was characterized by the absorption spectra after irradiation with LEDs at λ = 365 nm, 380 nm, 420 nm, 460 nm, 500 nm. The”

[4] = test system: zebrafish (Danio rerio) larvae; assay: Behavioural study (swimming activity) in zebrafish larvae under light cycles; type: in vivo
Description: Wild-type zebrafish embryos (Tupfel long-fin strain) were purchased from the animal facility of the Barcelona Biomedical Research Park (PRBB) and raised in darkness for 7 days at 28 °C in UV filtered tap water in Petri dishes (daily cleaned and refilled). Animal development was checked every 24 hours. Unhealthy or abnormal embryos and larvae were removed and euthanatized in tricaine methanosulfonate (400 mg/l). All experiments and procedures were conducted according to the European Directive 2010/63/EU.
Behavioral studies were conducted on wild-type zebrafish larvae at 7 days post-fertilization (dpf). Vehicle and compounds were added with a multichannel pipette to exclude differences related to a delay in the application of each solution. Movements were recorded and analyzed using the ZebraBox tracking system and the ZebraLab software (ViewPoint Life Science, France). On the morning of the test, 7-dpf larvae were moved into a new batch of fresh water and checked for motility capabilities and possible physical mutations. Larvae were then randomly divided into control and treatment groups. Each individual was placed in a separate well of a 96-well plate, each containing 200 µl of fresh UV filtered water and left undisturbed in the dark for 30 min to get acquainted with the new setting (habituation time). Afterwards, 100 µL of water were removed from each well and replaced with 100 µl of a double concentrated vehicle or treatment solution. At this point, the plate was inserted into the ZebraBox and the recording period started. Animals were exposed to controlled cycles of dark, 380 nm, 420 nm, 500 nm wavelengths or with a halogen lamp (warm white light), using the illumination protocols represented by coloured-shaded areas in their respective graphs (see figures). Illumination at 380, 420 and 500 nm was performed with a built-in array of 12 LEDs placed 12 cm away from the multiwell plate. The halogen lamp used was the Volpi Intralux 4000 (115 W). Light intensities, measured with a Newport 1916-C optical power meter coupled to a Newport 918D-SL-OD3R detector, were 0.21 mW·cm^-2 (380 nm), 2.43 mW·cm^-2 (420 nm) and 0.69 mW·cm^-2 (500 nm). All experiments were conducted between 12.00 and 15.00 pm (UTC+01:00).
Alterations of locomotor activity were determined by monitoring and measuring fast movements, swimming distances and duration of high-speed swimming. In particular, the dependent variables measured included: total distance travelled, distance travelled at ≤ 2 mm·s^-1, distance travelled at 2-6 mm·s^-1, distance travelled at ≥ 6 mm·s^-1, time spent moving, time spent freezing, and number of bursts. The arbitrary cut-off for motility (6 mm·s^-1) was chosen because no variance was found among the groups at lower speeds. Figures show distances travelled over 6 mm·s^-1 and total movements (addition of movements below cut-off high speed swimming) were not considered to limit the error of the video recording on minimal movements. Data were analysed by two-way ANOVA with Tukey's post-hoc test for statistical significance (GraphPad Prism 6).

[5] = after irradiation at 400 nm for 3 minutes, 374 nm
[6] = after irradiation at 500 nm for 3 minutes, 374 nm
[7] = benchtop dark condition, isosbestic wavelength 374 nm

NC(=O)N1Cc2ccccc2/N=N\c2ccccc21 [compound of formula (II), (Z)-dibenzo[c,g][1,2,5]triazocine-11(12H)-carboxamide]
activity at 30 µM ([1]; spontaneously firing neurons, without blue light (Fig 2B: 500 nm), P > 0.05, mean ± SD, read-out: frequency of the action potentials generation, % from control): 72 ± 5%
activity at 30 µM ([1]; under blue light (400 nm) illumination, P < 0.01, n=4, mean ± SD, read-out: frequency of the action potentials generation (firing), % from control): 28 ± 13%
ratio between the two isomers: cis (Z) [2, 5]: 49%
ratio between the two isomers: trans (E) [2, 5]: 51%
ratio between the two isomers: cis (Z) [2, 6]: ≥ 99%
ratio between the two isomers: trans (E) [2, 6]: not detected
ratio between the two isomers: cis (Z) [2, 7]: ≥ 99%
ratio between the two isomers: trans (E) [2, 7]: not detected
isomer present in the dark ([2]; in the dark, at benchtop conditions): fully converted into the Z inactive isomer
E to Z back-isomerization ([2]; irradiation at ≥ 500 nm): full back-isomerization to the Z inactive form
E to Z isomerization ([3]; 90 W EPV halogen lamp (600-700 nm), after one minute irradiation): full conversion
E to Z isomerization ([3]; 590 nm LED, over 1 h irradiation): quantitative conversion to the Z isomer
half-life for relaxation in the dark t1/2 ([3]; dark conditions, PBS 0.01M, 25°C): 3.2 h
resistance to several cycles of illumination (photofatigue) ([3]; several cycles of illumination): without degradation or loss in photochromic properties; also recorded: without loss in absorption or degradation
distance swum ([4]; 1 µM, after the third illumination with blue light (420 nm)): significant increase of the distance swum
swimming distances ([4]; 10 µM, average of all green (500 nm) periods): slightly increased
swimming activity ([4]; 10 µM, under blue light (420 nm)): increasing the activity of the larvae
swimming activity ([4]; 10 µM, under green illumination (500 nm)): returning to control levels
swimming activity ([4]; 50 µM, first blue light (420 nm) illumination periods, effect reduced with consecutive blue illumination): significantly hyperactive
signs of toxicity or distress in the larvae ([4]; 1-50 µM, 7 dpf zebrafish larvae): No signs of toxicity or distress
swimming distances ([4]; all concentrations (1, 10, 50 µM), green light (500 nm), each period compared individually to control): did not alter significantly the swimming distances
effect on swimming behaviour in the dark ([4]; first 20 minutes of the experiment, full darkness, 7 dpf larvae): no effects
hyperactivity of treated larvae ([4]; illumination with warm white light (halogen lamp), all treated groups): blocked the hyperactivity

Source: patent publication EP4427807A1, “N-BRIDGED DIAZOCINE ANALOGUES OF CARBAMAZEPINE TO CONTROL NEURONAL ACTIVITY WITH LIGHT AND APPLICATIONS THEREOF” (Fundació Institut de Bioenginyeria de Catalunya (IBEC), priority 2023, dated 2024)
